Assay results from patent US12629379B2, “Pharmaceutical composition for preventing, suppressing, or treating symptom associated with allergic reaction” (Nippon Chemiphar Co., Ltd., priority 2020, dated 2026).

Experiments:
BMMCs = assay: IL-6, IL-13 and TNF-α release by stimulated BMMCs (ELISA); format: cell-based, mice; settings: 10 μM, pretreatment 5 minutes; stimulation 3 hours
Description: BMMCs were washed with a fresh culture solution and subjected to reactions in the presence and absence of a stimulating agent (100 μM ATP, 1 μM PGE2, 100 μM ATP+1 μM PGE2) for 3 hours.
The grouping is as shown below and matches the numbers in parentheses indicated in FIGS. 7 to 9. • (1) A group in which nothing was added to the BMMCs, • (2) a group in which only ATP was added to the BMMCs, • (3) a group in which only PGE2 was added to the BMMCs, and • (4) a group in which a mixed solution of ATP and PGE2 was added to the BMMCs at once.
Cytokines released into the reaction solution (interleukin (IL)-6, IL-13, and TNF-α) were measured using ELISA kits (Invitrogen Corporation).

IgE-sensitized BMMCs = assay: Degranulation reaction (β-hexosaminidase release rate) of IgE-sensitized BMMCs costimulated with PGE2 and ATP; format: cell-based, mice
Description: (§1) The degranulation reaction was performed by obtaining a degranulation rate using a β-hexosaminidase release rate as an index. The β-hexosaminidase release rate was measured as in the section (Degranulation Experiment) below.
Setting up of BMMCs was performed according to the method described in Example 2.
(§2) Anti-DNP-IgE antibody (clone: SPE-7, manufactured by Sigma-Aldrich, Inc.) was added to the BMMC culture solution so that the concentration reached 50 ng/ml, and the BMMCs were sensitized overnight. To be used in the experiment, the BMMCs were washed with PBS(−) and suspended in Krebs Ringer-HEPES Buffer (NaCl 130 mM, KCl 4.7 mM, NaHCO3 4.0 mM, KH2P4 1.2 mM, Glucose 11.5 mM, HEPES 10 mM, and CaCl2·H2O 1.8 mM) so that the concentration reached 1×10^6 cell/ml.
Then, the BMMCs were each set up into the following 6 groups. Note that the numbers in the parentheses below match the numbers in parentheses in FIG. 6. • (1) A group in which nothing was added to the BMMCs, • (2) a group in which only ATP was added to the BMMCs, • (3) a group in which only PGE2 (1 μM) was added to the BMMCs, • (4) a group in which a mixed solution of ATP and PGE2 (1 μM) was added to the BMMCs at once, • (5) a group in which only DNP-HSA (10 ng/ml) was added to the BMMCs as an antigen, and • (6) a group in which a mixed solution of ATP and DNP-HSA (10 ng/ml) was added to the BMMCs at once.
Each of the 6 groups was stimulated at 37° C. for 5 minutes and rapidly cooled on ice, and then centrifugation was performed to stop the reaction. After collecting the supernatant, precipitated cells were lysed with 0.1% triton X-100. […] 50 mM carbonate buffer (pH 10.0, 100 μL) was added to stop the reaction, and absorbance was measured at 405/655 using an absorbance microplate reader Sunrise (manufactured by Tecan Trading AG). The β-hexosaminidase release rate was obtained from the following formula. β-hexosaminidase release rate=Absorbance of supernatant/(Absorbance of supernatant+absorbance of cell lysis station)×100 (Test Result) […]

PSA model mice = assay: Passive systemic anaphylaxis (PSA) in IgE-sensitized mice, body temperature change; format: in vivo; settings: for body temperature decrease-suppressing effect: 10 mg/kg intraperitoneally before tail vein DNP-HSA, vs vehicle group
Description: The mice were sensitized by tail vein administration of 10 μg/200 μL IgE (physiological saline) under anesthesia.
Male C57BL/6J mice (7 to 8 or 10 to 11 weeks old, produced by Japan SLC, Inc) were used as the mice.
The DNP-HSA administration was arranged to be performed 24 hours after the preparation of the IgE-sensitized mice.
Moreover, with the rest of the IgE-sensitized mice, a group administered with physiological saline as a control for Compound A (vehicle group) and a group administered with the solvent B as a control for Compound B (vehicle group) were prepared.
PSA model mice were prepared, and anaphylaxis was induced by tail vein administration of 100 ng/200 μL (physiological saline) DNP-HSA to unanesthetized mice 24 hours after the preparation of the IgE-sensitized mice.
Inducing systemic anaphylaxis causes a rapid decrease in the body temperatures of the PSA model mice.
The measurement of the body temperature change was performed by measuring, with BAT-7001H Thermometer (Physitemp Instruments, LLC.), the rectal temperatures every 5 minutes from 0 minutes to 60 minutes after the administration, the 0 minutes being defined as the time of the DNP-HSA administration.

[1] = system: IgE-sensitized bone marrow-derived mast cells (BMMCs); assay: Degranulation reaction (β-hexosaminidase release rate) of IgE-sensitized BMMCs costimulated with DNP-HSA and ATP; format: cell-based, mice; settings: for β-hexosaminidase release rate compared to the control BMMCs / β-hexosaminidase release rate compared to the control BMMCs (dose dependence): group (4): costimulation with ATP and DNP-HSA (10 ng/ml); for β-hexosaminidase release rate compared to the control BMMCs (dose dependence): preincubation with compound 1, 3, 10 μM
Description: as §1
Bone marrow was collected from femora of male C57BL/6J mice (7 to 8 weeks old, produced by Japan SLC, Inc). Red blood cells were hemolyzed, and culture was performed in a medium containing 10% fetal bovine serum (FBS), penicillin (100 unit/ml), streptomycin (100 μg/ml), and recombinant mouse IL-3 (10 ng/ml, manufactured by PeproTech, Inc.) for 14 days. Stem cell factor (SCF) (10 ng/ml) was added to the medium from Day 15, and the culture was performed for 35 to 42 days to be used for the experiment. Whether the cells were differentiated into mast cells was confirmed by the degrees the of c-KIT and FcεRI expressions. The confirmation was performed by using FACSCant II (manufactured by BD Biosciences).
as §2, with “NaHCO34.0” for “NaHCO3 4.0”
Then, the BMMCs were each set up into the following 4 groups. • (1) A group in which nothing was added to the BMMCs, • (2) a group in which only ATP was added to the BMMCs, • (3) a group in which only DNP-HSA (10 ng/ml) was added to the BMMCs as an antigen, and • (4) a group in which a mixed solution of ATP and DNP-HSA (10 ng/ml) was added to the BMMCs at once.
Each of the 4 groups was stimulated at 37° C. for 5 minutes and rapidly cooled on ice, and then centrifugation was performed to stop the reaction. After collecting the supernatant, precipitated cells were lysed with 0.1% triton X-100. The supernatant and the cell lysis solution (50 μL) were mixed with 10 mM 4-Nitrophenyl N-acetyl-p-D-glucosaminide (manufactured by Sigma-Aldrich, Inc.) which was a β-hexosaminidase substrate/50 mM citrate buffer (pH 4.5, 50 μL), and the mixture was incubated at 37° C. for 30 minutes. 50 mM carbonate buffer (pH 10.0, 100 μL) was added to stop the reaction, and absorbance was measured at 405/655 using an absorbance microplate reader Sunrise (manufactured by Tecan Trading AG). The β-hexosaminidase release rate was obtained from the following formula. β-hexosaminidase release rate=Absorbance of supernatant/(Absorbance of supernatant+absorbance of cell lysis station)×100
Note that, in the present Example, the numbers of specimens were all n=3, and the significant differences in the present Example are indicated with “*” or “**” in FIGS. 1 and 2, “*” indicating P<0.05, and “**” P<0.01. In addition, “*” or “**” in FIGS. 1 and 2 each indicate that there was a significant difference as a result of comparison with the control in the same group.

PCA model mice = assay: Passive cutaneous anaphylaxis (PCA) in IgE-sensitized mice, Evans blue in the auricle; format: in vivo
Description: The mice were sensitized by subcutaneously administering 100 ng/20 μL IgE into the right ears under anesthesia. Only physiological saline was administered into the left ears.
Male C57BL/6J mice (10 to 11 weeks old, produced by Japan SLC, Inc) were used as the mice.
Note that the DNP-HSA administration was performed by tail vein administration and was arranged to be performed 24 hours after the preparation of the IgE-sensitized mice.
Note that the concentration of 65% Kolliphor EL was prepared using ethanol and a small amount of sterile water for injection (or water). In addition, the DNP-HSA administration was arranged to be performed 24 hours after the preparation of the IgE-sensitized mice.
Moreover, with the rest of the IgE-sensitized mice, a group administered with physiological saline as a control for Compound A (vehicle group) and a group administered with the solvent B as a control for Compound B (vehicle group) were prepared. […]
The PCA model mice were euthanized 30 minutes after the DNP-HSA administration, the auricles were collected, and the weights of the auricles were measured. […] Absorbance (620 nm) of the extracted Evans blue and the calibration curve was measured using the absorbance microplate reader Sunrise (Tecan Trading AG), and the concentrations were calculated.

[2] = 10 mg/kg intraperitoneally 30 minutes before DNP-HSA

## O=C1CC(=O)N(c2cccc(-c3noc(=S)[nH]3)c2)c2ccc3ccccc3c2N1.[Na] [Compound A17, 5-[3-(5-thioxo-4H-[1,2,4]oxadiazol-3-yl)phenyl]-1H-naphtho[1,2-b][1,4]diazepine-2,4(3H,5H)-dione sodium salt]
BMMCs
  ATP-induced increase in IL-6 release: suppressed
  ATP-induced increase in IL-13 release: suppressed
  ATP-induced increase in TNF-α release: suppressed
IgE-sensitized BMMCs; group (4): costimulation with ATP (0.1 mM) and PGE2 (1 μM), all concentrations of 1 μM, 3 μM, and 10 μM
  β-hexosaminidase release rate compared to the control BMMCs: significantly decreased
IgE-sensitized BMMCs; group (4): costimulation with ATP (0.1 mM) and PGE2 (1 μM), preincubation with compound 1, 3, 10 μM
  β-hexosaminidase release rate compared to the control BMMCs (dose dependence): decreased in a dose-dependent manner
IgE-sensitized BMMCs; groups (1) to (3) not subjected to costimulation with ATP (0.1 mM) and PGE2, compound 1, 3 or 10 μM
  β-hexosaminidase release rate: lower than 5%
PSA model mice; [2]
  persistence of the body temperature decrease-suppressing effect: > 60 min
  time over which there was a significant difference in the body temperature decrease-suppressing effect: at least 35 minutes
PSA model mice
  body temperature decrease-suppressing effect: significant body temperature decrease-suppressing effect
[1]; all concentrations of 1 μM, 3 μM, and 10 μM
  β-hexosaminidase release rate compared to the control BMMCs: significantly decreased
[1]
  β-hexosaminidase release rate compared to the control BMMCs (dose dependence): decreased in a dose-dependent manner
[1]; groups (1) to (3) not subjected to costimulation with ATP and DNP-HSA (10 ng/ml), compound 1, 3 or 10 μM
  β-hexosaminidase release rate: lower than 10%

## O=C1CC(=O)N(c2ccc(NC(=O)c3ccccc3I)cc2)c2ccc3ccccc3c2N1 [Compound B48, 5-[4-(2-iodobenzoylamino)phenyl]-1H-naphtho[1,2-b][1,4]diazepine-2,4(3H,5H)-dione]
PCA model mice; 10 mg/kg intraperitoneally 1 hour before tail vein DNP-HSA, vs vehicle group
  increase in Evans Blue per auricle weight: significantly suppressed
PCA model mice; 10 mg/kg orally administered, not shown in the drawing
  increase in Evans Blue per auricle weight: significantly suppressed
PSA model mice
  body temperature decrease-suppressing effect: significant body temperature decrease-suppressing effect
[1]; concentrations of 3 μM and 10 μM
  β-hexosaminidase release rate compared to the control BMMCs: significantly decreased
[1]
  β-hexosaminidase release rate compared to the control BMMCs (dose dependence): decreased in a dose-dependent manner
